Assay results taken from patent publication US20260325685A1, “Radiopharmaceutical Compositions Targeting Carbonic Anhydrase IX and Uses Thereof” (RayzeBio, Inc., priority 2023, published 2026).
Read-outs that look alike come from different tables or passages of the source.

Assays:
human CA-XII = molecular target: T1, human CA-XII (Homo sapiens, UniProt O43570); assay: Surface Plasmon Resonance (SPR) binding kinetics to recombinant human CA-XII (Biacore 8K, single-cycle kinetics, 1:1 binding model)
T1 construct: purchased Creative BioMart CA12-261H
T1 sequence (O43570 25-354): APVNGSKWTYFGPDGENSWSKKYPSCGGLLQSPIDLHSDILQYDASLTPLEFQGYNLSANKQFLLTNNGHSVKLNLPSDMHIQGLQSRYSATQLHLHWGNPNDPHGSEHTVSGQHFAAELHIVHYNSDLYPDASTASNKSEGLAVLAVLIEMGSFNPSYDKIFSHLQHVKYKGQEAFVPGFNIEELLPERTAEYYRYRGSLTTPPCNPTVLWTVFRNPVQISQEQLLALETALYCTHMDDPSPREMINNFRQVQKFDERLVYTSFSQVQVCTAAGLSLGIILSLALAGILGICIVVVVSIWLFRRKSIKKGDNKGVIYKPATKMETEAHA
Method in brief: (§1)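 Recombinant human CA-IX or CA-XII captured on streptavidin chips (1200-1800 RU) in PBS-P+, pH 7.4. Single-cycle kinetics over 9 analyte concentrations (100-0.39 nM) with 1% DMSO, 120 s association, 1200 s dissociation, 25° C. Reference- and DMSO-corrected curves fit to 1:1 model for on/off rates.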

human CA-IX = molecular target: T2, human CA-IX (Homo sapiens, UniProt Q16790); assay: Surface Plasmon Resonance (SPR) binding kinetics to recombinant human CA-IX (Biacore 8K, single-cycle kinetics, 1:1 binding model)
T2 construct: purchased Acro CA9-H82E3
Method in brief: as §1

[1] = Chelated Metal: Lu-175, 25° C., pH 7.4, read-out: CAXII KD
[2] = Chelated Metal: Lu-175; SPR, 25° C., pH 7.4; read-out: CAIX KD
[3] = Chelated Metal: None, 25° C., pH 7.4, read-out: CAXII KD
[4] = Chelated Metal: None; SPR, 25° C., pH 7.4; read-out: CAIX KD
[5] = KD ratio CAXII/CAIX; Chelated Metal: None
[6] = read-out: CAXII KD, Chelated Metal: Lu-175, 25° C., pH 7.4
[7] = read-out: CAIX KD; Chelated Metal: Lu-175; SPR, 25° C., pH 7.4

CC(CCCC(=O)N1CCC(C(=O)O)(C(=O)NCC(=O)N2CCN(C(=O)CN3CCN(CC(=O)O)CCN(CC(=O)O)CCN(CC(=O)O)CC3)C[C@@H]2C(=O)NCCn2cc(C34CC(C(=O)Nc5nnc(S(N)(=O)=O)s5)(C3)C4)nn2)CC1)(c1ccc(O)cc1)c1ccc(O)cc1.[Lu+3] [Compound 107.12]
Kd (human CA-XII; [1]): > 10 nM
Kd (human CA-IX; [2]): 1 to 2.5 nM

CC(CCC(=O)N[C@@H](CC(=O)N[C@@H](CCC(=O)NC1(C(=O)NCCOCCOCCNC(=O)CN2CCN(CC(=O)O)CCN(CC(=O)O)CCN(CC(=O)O)CC2)CN(C(=O)Cn2cc(CCCC(=O)Nc3nnc(S(N)(=O)=O)s3)nn2)C1)C(=O)O)C(=O)O)(c1ccc(O)cc1)c1ccc(O)cc1.[Lu+3] [Compound 103.1]
Kd (human CA-XII; [1]): 2.5 to 10 nM
Kd (human CA-IX; [2]): 1 to 2.5 nM

CC(CCCC(=O)N1CCC(C(N)=O)(C(=O)NCC(=O)N2CCN(C(=O)CCOCCOCCCC(=O)CN3CCN(CC(=O)O)CCN(CC(=O)O)CCN(CC(=O)O)CC3)C[C@H]2C(=O)NCCn2cc(C34CC(C(=O)Nc5nnc(S(N)(=O)=O)s5)(C3)C4)nn2)CC1)(c1ccc(O)cc1)c1ccc(O)cc1 [Compound 129.4]
Kd (human CA-XII; [3]): > 10 nM
Kd (human CA-IX; [4]): < 1 nM
Ratio (CAXII/CAIX) (human CA-IX; [5]): **** (50 < ****)

CC1(c2ccc(C(=O)N[C@@H](CC(=O)N[C@@H](CC(=O)N3CCN(C(=O)CN4CCN(CC(=O)O)CCN(CC(=O)O)CCN(CC(=O)O)CC4)C[C@H]3C(=O)NCCn3cc(C45CC(C(=O)Nc6nnc(S(N)(=O)=O)s6)(C4)C5)nn3)C(=O)O)C(=O)O)cc2)CC1.[Lu+3] [Compound 109.22]
Kd (human CA-XII; [1]): 2.5 to 10 nM
Kd (human CA-IX; [2]): 1 to 2.5 nM

NS(=O)(=O)c1nnc(NC(=O)C23CCC(c4cn(CCNC(=O)[C@@H]5CN(C(=O)CN6CCN(CC(=O)O)CCN(CC(=O)O)CCN(CC(=O)O)CC6)CCN5C(=O)CNC(=O)C5(C(=O)O)CCN(C(=O)CCCc6ccc(O)cc6)CC5)nn4)(CC2)CC3)s1.[Lu+3] [Compound 107.7]
Kd (human CA-XII; [1]): 1 to 2.5 nM
Kd (human CA-IX; [2]): < 1 nM

CC(CCC(=O)N[C@@H](CC(=O)N[C@@H](CCC(=O)N1CCN(C(=O)CN2CCN(CC(=O)O)CCN(CC(=O)O)CCN(CC(=O)O)CC2)C[C@@H]1Cn1cc(C23CC(C(=O)Nc4nnc(S(N)(=O)=O)s4)(C2)C3)nn1)C(=O)O)C(=O)O)(c1ccc(O)cc1)c1ccc(O)cc1.[Lu+3] [Compound 107.14]
Kd (human CA-XII; [1]): < 1 nM
Kd (human CA-IX; [2]): < 1 nM

NS(=O)(=O)c1nnc(NC(=O)C23CC(c4cn(CCNC(=O)[C@@H]5CN(C(=O)CN6CCN(CC(=O)O)CCN(CC(=O)O)CCN(CC(=O)O)CC6)CCN5C(=O)CNC(=O)C5(C(=O)O)CCN(C(=O)CCC6CCCCCC6)CC5)nn4)(C2)C3)s1.[Lu+3] [Compound 112.7]
Kd (human CA-XII; [1]): > 10 nM
Kd (human CA-IX; [2]): < 1 nM

CC(CCC(=O)N[C@@H](CC(=O)N[C@@H](CC(=O)N1CCN(C(=O)CN2CCN(CC(=O)O)CCN(CC(=O)O)CCN(CC(=O)O)CC2)C[C@H]1C(=O)NCCn1cc(C23CC(C(=O)Nc4nnc(S(N)(=O)=O)s4)(C2)C3)nn1)C(=O)O)C(=O)O)(c1ccc(O)cc1)c1ccc(O)cc1.[Lu+3] [Compound 106]
Kd (human CA-XII; [6]): 2.5 to 10 nM
Kd (human CA-IX; [7]): < 1 nM

NS(=O)(=O)c1nnc(NC(=O)C23CC(c4cn(C[C@H]5CN(C(=O)CN6CCN(CC(=O)O)CCN(CC(=O)O)CCN(CC(=O)O)CC6)CCN5C(=O)CNC(=O)C5(C(=O)O)CCN(C(=O)Cc6n[nH]c7ccccc67)CC5)nn4)(C2)C3)s1.[Lu+3] [Compound 112.17]
Kd (human CA-XII; [1]): 1 to 2.5 nM
Kd (human CA-IX; [2]): < 1 nM

NS(=O)(=O)c1nnc(NC(=O)C23CC(c4cn(CCNC(=O)[C@@H]5CN(C(=O)CN6CCN(CC(=O)O)CCN(CC(=O)O)CCN(CC(=O)O)CC6)CCN5C(=O)C[C@H](Nc5ncc(C(=O)N6CCC(c7ccc(O)cc7)(c7ccc(O)cc7)CC6)cn5)C(=O)O)nn4)(C2)C3)s1.[Lu+3] [Compound 111.4]
Kd (human CA-XII; [1]): > 10 nM
Kd (human CA-IX; [2]): 2.5 to 10 nM

NS(=O)(=O)c1nnc(NC(=O)C23CCC(c4cn(CCNC(=O)[C@@H]5CN(C(=O)CN6CCN(CC(=O)O)CCN(CC(=O)O)CCN(CC(=O)O)CC6)CCN5C(=O)CNC(=O)C5(C(=O)O)CCN(C(=O)CCCc6ccc(I)cc6)CC5)nn4)(CC2)CC3)s1.[Lu+3] [Compound 112.2]
Kd (human CA-XII; [1]): 2.5 to 10 nM
Kd (human CA-IX; [2]): < 1 nM

NS(=O)(=O)c1nnc(NC(=O)C23CC(c4cn(CCNC(=O)[C@@H]5CN(C(=O)CN6CCN(CC(=O)O)CCN(CC(=O)O)CCN(CC(=O)O)CC6)CCN5C(=O)C[C@H](NC(=O)C[C@H](NC(=O)c5ccc(C6CC6)cc5)C(=O)O)C(=O)O)nn4)(C2)C3)s1.[Lu+3] [Compound 109.1]
Kd (human CA-XII; [1]): 2.5 to 10 nM
Kd (human CA-IX; [2]): < 1 nM

NS(=O)(=O)c1nnc(NC(=O)C23CC(c4cn(CCNC(=O)[C@@H]5CN(C(=O)CN6CCN(CC(=O)O)CCN(CC(=O)O)CCN(CC(=O)O)CC6)CCN5C(=O)C[C@H](NC(=O)C[C@H](NC(=O)c5n[nH]c6ccc(O)cc56)C(=O)O)C(=O)O)nn4)(C2)C3)s1.[Lu+3] [Compound 109.31]
Kd (human CA-XII; [1]): 2.5 to 10 nM
Kd (human CA-IX; [2]): < 1 nM

NC(=O)C1(C(=O)NCC(=O)N2CCN(C(=O)CN3CCN(CC(=O)O)CCN(CC(=O)O)CCN(CC(=O)O)CC3)C[C@H]2C(=O)NCCn2cc(C34CC(C(=O)Nc5nnc(S(N)(=O)=O)s5)(C3)C4)nn2)CCN(C(=O)c2ccc(C3CC3)nn2)CC1.[Lu+3] [Compound 113]
Kd (human CA-XII; [6]): > 10 nM
Kd (human CA-IX; [7]): 2.5 to 10 nM

Cc1cc(C(=O)Nc2nnc(S(N)(=O)=O)s2)ccc1-c1cn(CCNC(=O)[C@@H]2CN(C(=O)CN3CCN(CC(=O)O)CCN(CC(=O)O)CCN(CC(=O)O)CC3)CCN2C(=O)C[C@H](NC(=O)C[C@H](NC(=O)CCC(C)(c2ccc(O)cc2)c2ccc(O)cc2)C(=O)O)C(=O)O)nn1.[Lu+3] [Compound 107.35]
Kd (human CA-XII; [1]): > 10 nM
Kd (human CA-IX; [2]): < 1 nM

CC(CCC(=O)N[C@@H](CC(=O)N[C@@H](CC(=O)N1CCN(C(=O)CN2CCN(CC(=O)O)CCN(CC(=O)O)CCN(CC(=O)O)CC2)C[C@H]1C(=O)NCCn1cc(C23CCC(C(=O)Nc4nnc(S(N)(=O)=O)s4)(C2)C3)nn1)C(=O)O)C(=O)O)(c1ccc(O)cc1)c1ccc(O)cc1.[Lu+3] [Compound 107.5]
Kd (human CA-XII; [1]): < 1 nM
Kd (human CA-IX; [2]): < 1 nM

CC(CCCC(=O)N1CCC(C(N)=O)(C(=O)NCC(=O)N2CCN(C(=O)CN3CCN(CC(=O)O)CCN(CC(=O)O)CCN(CC(=O)O)CC3)C[C@H]2C(=O)NCCn2cc(C34CC(c5cn6nc(S(N)(=O)=O)sc6n5)(C3)C4)nn2)CC1)(c1ccc(O)cc1)c1ccc(O)cc1 [Compound 107.53]
Kd (human CA-XII; [3]): 2.5 to 10 nM
Kd (human CA-IX; [4]): < 1 nM
Ratio (CAXII/CAIX) (human CA-IX; [5]): **** (50 < ****)

NS(=O)(=O)c1nnc(NC(=O)C23CC(c4cn(CCNC(=O)[C@@H]5CN(C(=O)CN6CCN(CC(=O)O)CCN(CC(=O)O)CCN(CC(=O)O)CC6)CCN5C(=O)CNC(=O)C5(C(=O)O)CCN(C(=O)Cc6ccc7[nH]ncc7c6)CC5)nn4)(C2)C3)s1.[Lu+3] [Compound 112.16]
Kd (human CA-XII; [1]): > 10 nM
Kd (human CA-IX; [2]): 2.5 to 10 nM

CC(CCCC(=O)N1CCC(C(=O)O)(C(=O)NCC(=O)N2CCN(C(=O)CN3CCN(CC(=O)O)CCN(CC(=O)O)CCN(CC(=O)O)CC3)C[C@H]2C(=O)NCCn2cc(C34CCC(C(=O)Nc5nnc(S(N)(=O)=O)s5)(CC3)CC4)nn2)CC1)(c1ccc(O)cc1)c1ccc(O)cc1.[Lu+3] [Compound 107.9]
Kd (human CA-XII; [1]): 1 to 2.5 nM
Kd (human CA-IX; [2]): < 1 nM

NS(=O)(=O)c1nnc(NC(=O)C23CC(c4cn(CCNC(=O)[C@H]5CN(C(=O)CN6CCN(CC(=O)O)CCN(CC(=O)O)CCN(CC(=O)O)CC6)CCN5C(=O)CC[C@H](NC(=O)Cc5n[nH]c6ccccc56)C(=O)O)nn4)(C2)C3)s1.[Lu+3] [Compound 107.16]
Kd (human CA-XII; [1]): 2.5 to 10 nM
Kd (human CA-IX; [2]): 1 to 2.5 nM

NS(=O)(=O)c1nnc(NC(=O)C23CC(c4cn(CCNC(=O)[C@@H]5CN(C(=O)CN6CCN(CC(=O)O)CCN(CC(=O)O)CCN(CC(=O)O)CC6)CCN5C(=O)C[C@H](NC(=O)C[C@H](NCC5CC5)C(=O)O)C(=O)O)nn4)(C2)C3)s1.[Lu+3] [Compound 109.29]
Kd (human CA-XII; [1]): > 10 nM
Kd (human CA-IX; [2]): 2.5 to 10 nM

CC(CCNC(=O)c1cnc(N[C@@H](CC(=O)N2CCN(C(=O)CN3CCN(CC(=O)O)CCN(CC(=O)O)CCN(CC(=O)O)CC3)C[C@@H]2C(=O)NCCn2cc(C34CC(C(=O)Nc5nnc(S(N)(=O)=O)s5)(C3)C4)nn2)C(=O)O)nc1)(c1ccc(O)cc1)c1ccc(O)cc1.[Lu+3] [Compound 111.1]
Kd (human CA-XII; [1]): > 10 nM
Kd (human CA-IX; [2]): 1 to 2.5 nM

NS(=O)(=O)c1nnc(NC(=O)C23CCC(c4cn(CCNC(=O)[C@@H]5CN(C(=O)CN6CCN(CC(=O)O)CCN(CC(=O)O)CCN(CC(=O)O)CC6)CCN5C(=O)CC[C@H](NC(=O)C[C@H](NC(=O)CCc5ccc(O)cc5)C(=O)O)C(=O)O)nn4)(CC2)CC3)s1.[Lu+3] [Compound 109.43]
Kd (human CA-XII; [1]): < 1 nM
Kd (human CA-IX; [2]): < 1 nM

CC(CCCC(=O)N1CCC(C(N)=O)(C(=O)NCC(=O)N2CCN(C(=O)CN3CCN(CC(=O)O)CCN(CC(=O)O)CCN(CC(=O)O)CC3)C[C@@H]2C(=O)NCCn2nnc(C34CC(C(=O)Nc5nnc(S(N)(=O)=O)s5)(C3)C4)c2C(=O)O)CC1)(c1ccc(O)cc1)c1ccc(O)cc1.[Lu+3] [Compound 107.59]
Kd (human CA-XII; [1]): > 10 nM
Kd (human CA-IX; [2]): < 1 nM

NS(=O)(=O)c1nnc(NC(=O)C23CC(c4cn(CCNC(=O)[C@@H]5CN(C(=O)CN6CCN(CC(=O)O)CCN(CC(=O)O)CCN(CC(=O)O)CC6)CCN5C(=O)C[C@H](Nc5ncc(C(=O)NCc6ccc(C7CC7)cc6)cn5)C(=O)O)nn4)(C2)C3)s1.[Lu+3] [Compound 111.3]
Kd (human CA-XII; [1]): > 10 nM
Kd (human CA-IX; [2]): 1 to 2.5 nM

NS(=O)(=O)c1nnc(NC(=O)C23CC(c4cn(CCNC(=O)[C@H]5CNCCN5C(=O)[C@H](CCCCNC(=O)CN5CCN(CC(=O)O)CCN(CC(=O)O)CCN(CC(=O)O)CC5)NC(=O)CC[C@H](NC(=O)CCC5CCCCC5)C(=O)O)nn4)(C2)C3)s1.[Lu+3] [Compound 118]
Kd (human CA-XII; [6]): 2.5 to 10 nM
Kd (human CA-IX; [7]): 1 to 2.5 nM
